Laboratory results: patent US7713960B2, “Inhibition of the Raf/Mek/P-Erk pathway for treating cancer” (University of South Florida, priority 2005, dated 2010)
Where a name gives a salt, the structure may show the parent alone.

How the values were obtained:
A-549 cells [1] = experiment: Total cellular cAMP measurement, A-549; format: cell-based, human
Protocol: (§1) Total cellular cAMP measurement—The measurement of total cellular cAMP was done using a cAMP Biotrak ™ Enzymeimmunoassay (EIA) system (Amersham Biosciences, Piscataway, N.J.) according to the manufacturer's protocol. Briefly, 2000 cells were plated into each well of a 96 well plate. The next day cells were treated with increasing concentrations of ARA-211 or with vehicle for one hour. Alternatively, MDA-MB-231 cells were pre-treated with antagonists to the α1 (Prazosin, Sigma), α2 (Yohimbine, Sigma), β1 (Metoprolol, Sigma), and β2 (ICI 118.551, Sigma) adrenergic receptors at 100 nM for 15 minutes followed by treatment with 10 μM ARA-211 for 45 minutes. Cells were then lysed directly in the wells using the supplied lysis buffer. The lysate was transferred to a 96-well cAMP ELISA plate, and results were quantified using a Wallac Victor 2 plate reader.

SNB-19 cells = experiment: Total cellular cAMP measurement, SNB-19; format: cell-based, human
Protocol: as §1

P-Erk 1/2 [2] = experiment: P-Erk 1/2 levels (Western blotting), MDA-MB-231; format: cell-based, human
Protocol: Western Blotting—Treated cell samples were lysed in 30 mM HEPES, 10 mM NaCl, 5 mM MgCl2, 25 mM NaF, 1 mM EGTA, 1% Triton-X-100, 10% Glycerol, 2 mM Sodium orthovanidate, 10 μg/mL aprotinin, 10 μg/mL soybean trypsin inhibitor, 25 μg/mL leupeptin, 2 mM phenylmethylsulfonylfluoride (PMSF), 6.4 mg/mL p-nitrophenylphosphate for 30 minutes at 4° C., and proteins run on SDS-PAGE gels then transferred to nitrocellulose membranes. Membranes were blocked in either 5% milk in PBS, pH 7.4, containing 0.1% Tween-20 (PBS-T) or 1% BSA in TBS, pH 7.5, containing 0.1% Tween-20 (TBS-T). Phospho-STAT3 and phospho-AKT antibodies were diluted in 1% BSA in TBS-T while phospho-c-Raf, phospho-Mek, and phospho-p44/p42 MAPK antibodies (Cell Signaling) were diluted in 5% milk in PBS-T for either 1 hour at room temperature or overnight at 4° C. HRP-conjugated secondary antibodies (Jackson ImmunoResearch, West Grove, Pa.) were diluted in 5% milk in PBS-T or TBS-T at a 1:1000 dilution for one hour at room temperature. Western blots results were visualized using enhanced chemiluminescence. Stripping of the membranes for reblotting was done using stripping buffer (62.5 mM Tris pH 7.6, 2% SDS, 0.7% 2-mercaptoethanol) at 50° C. for 30 minutes.

A-549 cells [3] = experiment: Anchorage-dependent growth (MTT assay), A-549; format: cell-based, human
Protocol: MTT Assay—2000 cells per well were plated into 96 well tissue culture plates, and the cells were allowed to attach overnight at 37° C. with 10% CO2. Cells were then treated with increasing concentrations of ARA-211, or vehicle (DMSO) and incubated for four days. At that time treatment medium was removed and replaced with 100 μl of lmg/ml MTT (Sigma-Aldrich, St. Louis, Mo.) in media and incubated at 37° C., 10% CO2 for 3 hours. After 3 hours the MTT media was removed and replaced with 100 μl/well of DMSO, rocked at room temperature for 5 minutes, then absorbance read at 540 nm on a micro-plate reader.

MDA-MB-231 cells = experiment: Anchorage-independent growth (soft agar assay), MDA-MB-231; format: cell-based, human
Protocol: Soft Agar Assay—Anchorage independent growth assays were performed as previously described (Lerner et al., 1997). Briefly, agar was diluted to 0.3% in propagation media containing 20,000 cells and either vehicle or ARA-211 and 1 ml of cell/agar mixture plated on top of 2 ml of a 0.6% layer of agar in medium alone. Cells were grown for three to four weeks at 37° C., 10% Co2 and were fed weekly with 100 μl per well of media/treatment. Quantification of colonies was done using a GS-700 scanning densitometer.

SF-539 cells = experiment: Apoptosis assay (Cell Death Detection ELISA), SF-539; format: cell-based, human; settings: 48 hours
Protocol: (§2) Apoptosis Assay—Apoptosis was analyzed using the Cell Death Detection ELISA (Roche, Indianapolis, Ind.) measuring cytoplasmic histone-associated mono- and oligonucleosome DNA fragments. Procedures were carried out according to the manufacturers protocol. Briefly, 1×10^5 cells were plated in 60 mm dishes and treated with various doses of ARA-211 or vehicle for 48 hours. Cells were lysed with the provided lysis buffer and lysate was incubated on the ELISA plate for 1 hour to capture the histone associated DNA indicative of apoptotic cells. Anti-DNA peroxidase conjugated antibody was added to detect the cleaved DNA and the microplate was washed and developed with ABTS substrate which was quantitated by microplate reader at 405 nm.

ACHN cells = experiment: Apoptosis assay (Cell Death Detection ELISA), ACHN; format: cell-based, human; settings: 48 hours
Protocol: as §2

Mek-1 = biological target: T1, Mek-1 (Homo sapiens, UniProt Q02750); experiment: In vitro kinase assay, Mek-1 immunoprecipitated from MDA-MB-231 cells; format: biochemical; settings: immunoprecipitated kinase treated in vitro, 10 μM
T1 construct: c-Raf-1 and Mek-1, immunoprecipitated from MDA-MB-231 cells; endogenous in cells; host or cells: MDA-MB-231
Protocol: In Vitro Kinase Assays—MDA-MB-231 cells (2×10^6) were lysed for 30 minutes at 4° C. in RIPA-150 buffer (10 mM Tris pH 7.5, 150 mM NaCl, 10% glycerol, 5 mM EDTA, 1% Triton X-100, 0.1% SDS, 100 μM sodium orthovanadate, 1 μM aprotinin, 10 μM leupeptin, 10 μM antipain). Cell debris was pelleted at 13000 rpm for 15 minutes at 4° C. and the lysate was rocked overnight with 10 μg of either c-Raf or MEK antibodies (Santa Cruz Biotechnologies, Santa Cruz, Calif.). 25 μl of protein A/G PLUS agarose (Santa Cruz Biotechnology) was then added and rocked for 4 hours at 4° C. Samples were spun at 2000 rpm for 5 minutes to collect the agarose beads, which were then washed four times with lysis buffer. On the final wash each pellet was divided into 5. […]

P-Erk 1/2 [4] = experiment: Growth factor (EGF) stimulation of P-Erk 1/2, MDA-MB-231 cells; format: cell-based, human

T1 sequence (Q02750 whole entry): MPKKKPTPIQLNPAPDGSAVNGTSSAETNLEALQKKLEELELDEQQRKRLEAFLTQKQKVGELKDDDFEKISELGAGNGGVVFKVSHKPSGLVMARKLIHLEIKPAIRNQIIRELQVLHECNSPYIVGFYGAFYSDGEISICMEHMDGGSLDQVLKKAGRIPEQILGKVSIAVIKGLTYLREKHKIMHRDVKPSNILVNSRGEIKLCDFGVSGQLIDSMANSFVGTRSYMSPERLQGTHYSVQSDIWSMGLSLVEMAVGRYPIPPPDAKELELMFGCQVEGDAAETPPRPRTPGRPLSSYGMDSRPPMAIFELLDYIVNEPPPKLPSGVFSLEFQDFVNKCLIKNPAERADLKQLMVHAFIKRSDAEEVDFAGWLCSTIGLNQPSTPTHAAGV

SMILES: CC(C)(C)NCC(O)c1ccc(O)c(CO)n1 (centres unmarked) [ARA-211, 2-hydroxymethyl-3-hydroxy-6-(1-hydroxy-2-tert-butylaminoethyl) pyridine, dihydrochloride]
- cAMP (Fold Induction) (A-549 cells [1]): 1.3 ± 0.3 Fold
- cAMP (Fold Induction) (SNB-19 cells): 1.2 ± 0.4 Fold
- P-Erk ½ (% Inhibition) (P-Erk 1/2 [2]; MDA-MB-231): 100%
- levels of P-Erk 1/2 (P-Erk 1/2 [2]; MDA-MB-231, at 10 nM): suppressed potently
- inhibition of P-Erk 1/2 in cells ectopically expressing constitutively activated Mek-1 (P-Erk 1/2 [2]; MDA-MB-231 with CA-Mek, 10 μM, 48 hours): resistant
- Anchorage Dependent Growth (% Inhibition) (A-549 cells [3]): 9.6 ± 6.1%
- Anchorage Independent Growth (% Inhibition) (MDA-MB-231 cells): 82.7 ± 7.9%
- Apoptosis (% Induction) (SF-539 cells): 9 ± 1.7%
- Apoptosis (% Induction) (ACHN cells): 11.4 ± 1.9%
- in vitro Mek-1 kinase activity (Mek-1): did not inhibit
- growth factor (EGF) stimulation of P-Erk 1/2 (P-Erk 1/2 [4]): is blocked
